Experimental data as given in patent US20170240566A1, “AMINO-SUBSTITUTED ANNULATED PYRIMIDINES AND USE THEREOF” (Bayer Pharma Aktiengesellschaft, priority 2014, published 2017).
In brackets after ≈: the same amount, converted by molar mass.

Experiments:
[1] = test system: recombinant guanylate cyclase reporter cell line; assay: Effect on a recombinant guanylate cyclase reporter cell line; format: cell-based; details: minimum effective concentration; in some cases means of individual determinations; read-out: MEC
Experimental: B-2. Effect on a Recombinant Guanylate Cyclase Reporter Cell Line
The cellular activity of the compounds of the invention is determined using a recombinant guanylate cyclase reporter cell line, as described in F. Wunder et al., Anal. Biochem. 339, 104-112 (2005). Representative values (MEC=minimum effective concentration) for the compounds of the invention are shown in the table below (Table 1; in some cases as means of individual determinations): […]

[2] = target: T1, human phosphodiesterase 5 (PDE 5) (Homo sapiens, UniProt O76074); assay: Inhibition of human phosphodiesterase 5 (PDE 5); format: biochemical; details: PDE 5 preparation from human platelets; in some cases means of individual determinations
T1 construct: PDE 5 preparations are obtained from human platelets by disruption; from tissue; host or cells: human platelets
Experimental: B-3. Inhibition of human phosphodiesterase 5 (PDE 5)
PDE 5 preparations are obtained from human platelets by disruption (Microfluidizer®, 800 bar, 3 passes), followed by centrifugation (75 000 g, 60 min, 4° C.) and ion exchange chromatography of the supernatant on a Mono Q 10/10 column (linear sodium chloride gradient, elution with a 0.2-0.3M solution of sodium chloride in buffer (20 mM Hepes pH 7.2, 2 mM magnesium chloride). Fractions having PDE 5 activity are combined (PDE 5 preparation) and stored at −80° C.
To determine their in vitro action on human PDE 5, the test substances are dissolved in 100% DMSO and serially diluted. Typically, dilution series (1:3) from 200 μM to 0.091 μM are prepared (resulting final concentrations in the test: 4 μM to 0.0018 μM). In each case 2 μl of the diluted substance solutions are placed into the wells of microtitre plates (Isoplate-96/200W; Perkin Elmer). Subsequently, 50 μl of a dilution of the above-described PDE 5 preparation are added. The dilution of the PDE 5 preparation is chosen such that during the later incubation less than 70% of the substrate are converted (typical dilution: 1:100; dilution buffer: 50 mM tris/hydrochloric acid pH 7.5, 8.3 mM magnesium chloride, 1.7 mM EDTA, 0.2% BSA). The substrate, [8-^3H] cyclic guanosine-3′,5′-monophosphate (1 μCi/μl; Perkin Elmer), is diluted 1:2000 with assay buffer (50 mM tris/hydrochloric acid pH 7.5, 8.3 mM magnesium chloride, 1.7 mM EDTA) to a concentration of 0.0005 μμCi/μl. By addition of 50 μl (0.025 μCi) of the diluted substrate, the enzyme reaction is finally started. The test mixtures are incubated at room temperature for 60 min and the reaction is stopped by adding 25 μl of a suspension of 18 mg/ml yttrium scintillation proximity beads in water (phosphodiesterase beads for SPA assays, RPNQ 0150, Perkin Elmer). The microtitre plates are sealed with a film and left to stand at room temperature for 60 min. Subsequently, the plates are analysed for 30 s per well in a Microbeta scintillation counter (Perkin Elmer). IC50 values are determined using the graphic plot of the substance concentration against percentage PDE 5 inhibition.

[3] = Solubility of substances in buffer pH 6.5; format: physicochemical; details: aqueous buffer, kinetic from dmso stock, PBS buffer pH 6.5, room temperature
Experimental: B-10. Determination of the Solubility of Substances in Buffer pH 6.5
40 μl of DMSO are added to 2 mg of a test substance [50 g/l]. 10 μl of this solution are removed and introduced into 990 μl of PBS buffer pH 6.5 (c=500 μg/ml). This solution/suspension is shaken at room temperature for 24 h. After 30 min of ultracentrifugation at 114 000 g, the supernatant is removed, diluted with ACN/water 8:2 and analyzed by LC-MSMS.
For calibration, likewise 10 pi are removed from the DMSO stock solution and introduced into 823 μl of DMSO (c=600 μg/ml). Quantification takes place using a five-point calibration curve.

Work on Cc1nc2c(cc1F)c(-c1nc(NCC(N)(CF)CF)c3c(n1)NC(=O)C3(C)C)nn2Cc1cccc(F)c1F [Example 1, 4-{[2-Amino-3-fluoro-2-(fluoromethyl)propyl]amino}-2[1-(2,3-difluorobenzyl)-5-fluoro-6-methyl-1H-pyrazolo[3,4-b]pyridin-3-yl]-5,5-dimethyl-5,7-dihydro-6H-pyrrolo[2,3-d]pyrimidin-6-one] yielded a minimal effective concentration [1] of 0.3 µM, an IC50 [2] of 52 nM and a solubility at 24 h [3] of 7.6 µg/mL (≈ 13.6 µM).
In the case of Cc1nc2c(cc1F)c(-c1nc(NCC(N)(CF)CF)c3c(n1)NC(=O)C3(C)C)nn2Cc1ccccc1F [Example 2, 4-{[2-Amino-3-fluoro-2-(fluoromethyl)propyl]amino}-2-[5-fluoro-1-(2-fluorobenzyl)-6-methyl-1H-pyrazolo[3,4-b]pyridin-3-yl]-5,5-dimethyl-5,7-dihydro-6H-pyrrolo[2,3-d]pyrimidin-6-one], the minimal effective concentration [1] is reported as 0.1 µM, the IC50 [2] is reported as 160 nM and the solubility at 24 h [3] is reported as 5.1 µg/mL (≈ 9.4 µM).
Cc1nc2c(cc1F)c(-c1nc(NCC(N)(CF)CF)c3c(n1)NC(=O)C3(C)C)nn2Cc1c(F)ccc(F)c1F [Example 3, 4-{[2-Amino-3-fluoro-2-(fluoromethyl)propyl]amino}-2-[5-fluoro-6-methyl-1-(2,3,6-trifluorobenzyl)-1H-pyrazolo[3,4-b]pyridin-3-yl]-5,5-dimethyl-5,7-dihydro-6H-pyrrolo[2,3-d]pyrimidin-6-one] gave a minimal effective concentration [1] of 0.03 µM and an IC50 [2] of 194 nM.
For Cc1nc2c(cc1F)c(-c1nc(NCC(N)(CF)CF)c3c(n1)NC(=O)C3(C)C)nn2Cc1ncccc1F [Example 4, 4-{[2-Amino-3-fluoro-2-(fluoromethyl)propyl]amino}-2-{5-fluoro-1-[(3-fluoropyridin-2-yl)methyl]-6-methyl-1H-pyrazolo[3,4-b]pyridin-3-yl}-5,5-dimethyl-5,7-dihydro-6H-pyrrolo[2,3-d]pyrimidin-6-one], the minimal effective concentration [1] was 1 µM, the IC50 [2] was 180 nM and the solubility at 24 h [3] was 260 µg/mL (≈ 479 µM).
Molecule CC1(C)C(=O)Nc2nc(-c3nn(Cc4ncccc4F)c4ncc(F)cc34)nc(NCC(N)(CF)CF)c21 [Example 5, 4-{[2-Amino-3-fluoro-2-(fluoromethyl)propyl]amino}-2-{5-fluoro-1-[(3-fluoropyridin-2-yl)methyl]-1H-pyrazolo[3,4-b]pyridin-3-yl}-5,5-dimethyl-5,7-dihydro-6H-pyrrolo[2,3-d]pyrimidin-6-one] has a minimal effective concentration [1] of 1 µM, an IC50 [2] of 70 nM and a solubility at 24 h [3] of 278 µg/mL (≈ 526 µM).
